Experimental data: ChEMBL document CHEMBL2069255, “Synthesis and DNA binding properties of 1-(3-aminopropyl)-imidazole-containing triamide f-Im*PyIm: a novel diamino polyamide designed to target 5'-ACGCGT-3'” (Bioorg Med Chem Lett, 2012)
Active and inactive are the calls of the source. No cut-off for these calls is given here.

Experiments:
Type in all cases: nucleic-acid assay
[1] = tested on: Nucleic Acid; assay: Binding affinity to ACGCGT DNA assessed as change in melting temperature by thermal denaturation assay
[2] = tested on: Nucleic Acid; assay: Binding affinity to AAATTT DNA assessed as change in melting temperature by thermal denaturation assay
[3] = tested on: Nucleic Acid; assay: Binding affinity to AAATTT DNA by SPR assay
[4] = tested on: Nucleic Acid; assay: Binding affinity to ACGCGT DNA by ITC assay
[5] = tested on: Nucleic Acid; assay: Binding affinity to ACATGT DNA by SPR assay
[6] = tested on: Nucleic Acid; assay: Binding affinity to ATGCAT DNA assessed as change in melting temperature by thermal denaturation assay
[7] = tested on: Nucleic Acid; assay: Binding affinity to ACGCGT DNA by SPR assay

Row | Compound | ΔTm [1] [°C] | ΔTm [2] [°C] | Ke [3] | Activity [4] | Ke [5] [×10⁶ /M] | ΔTm [6] [°C] | Ke [7]
1 | CN(C)CCNC(=O)c1nc(NC(=O)c2cc(NC(=O)c3nc(NC=O)cn3CCCN)cn2C)cn1C | > 20 | 11 | 2.2 ×10⁶ /M | Active | 3.7 | 20 | 2.3 ×10⁷ /M
2 | CN(C)CCNC(=O)c1nc(NC(=O)c2cc(NC(=O)c3nc(NC=O)cn3C)cn2CCCN)cn1C | > 24 | 10 | – | Active | – | 24 | 2.4 ×10⁸ /M
3 | CN(C)CCNC(=O)c1nc(NC(=O)c2cc(NC(=O)c3nc(NC=O)cn3C)cn2C)cn1C | 7.8 | 1 | 5.3 ×10⁴ /M | Active | – | – | 1.9 ×10⁸ /M
